Experimental data from the NIST ThermoML archive (doi:10.1016/j.fluid.2006.01.028).

Assays:
[1] = for surface tension liquid-gas: Drop volume; for mass density: Liquid
[2] = xn = mol fraction of the nth substance listed; conditions: for surface tension liquid-gas: Drop volume; for mass density: 101 kPa, Liquid

CCCCCCO [hexan-1-ol]
[1]
Conditions	mass density [kg/m3]	surface tension liquid-gas [mN/m]
288.15 K	822.28	26.08
298.15 K	815.23	25.19
308.15 K	808	24.19

CCCCCCCCC [nonane]
[1]
Conditions	mass density [kg/m3]	surface tension liquid-gas [mN/m]
288.15 K	721.78	23.38
298.15 K	714.02	22.37
308.15 K	706.21	21.25

CCCCCCCCC [nonane] + CCCCCCO
[2]
Conditions	mass density [kg/m3]	surface tension liquid-gas [mN/m]
288.15 K, x1 = 0.05	–	25.77
288.15 K, x1 = 0.0509	815.13	–
288.15 K, x1 = 0.1003	808.46	–
288.15 K, x1 = 0.1082	–	25.47
288.15 K, x1 = 0.2028	795.35	–
288.15 K, x1 = 0.2075	–	25.06
288.15 K, x1 = 0.307	783.01	–
288.15 K, x1 = 0.3079	–	24.62
288.15 K, x1 = 0.4026	772.51	–
288.15 K, x1 = 0.4075	–	24.31
288.15 K, x1 = 0.5066	–	24.01
288.15 K, x1 = 0.5086	761.75	–
288.15 K, x1 = 0.6016	753.02	–
288.15 K, x1 = 0.6024	–	23.81
288.15 K, x1 = 0.7079	–	23.68
288.15 K, x1 = 0.708	743.74	–
288.15 K, x1 = 0.808	735.7	–
288.15 K, x1 = 0.8081	–	23.57
288.15 K, x1 = 0.9016	728.72	–
288.15 K, x1 = 0.9036	–	23.48
288.15 K, x1 = 0.9506	725.26	–
288.15 K, x1 = 0.9554	–	23.44
298.15 K, x1 = 0.0504	–	24.84
298.15 K, x1 = 0.0509	807.93	–
298.15 K, x1 = 0.1003	801.18	–
298.15 K, x1 = 0.1004	–	24.54
298.15 K, x1 = 0.2028	787.95	–
298.15 K, x1 = 0.2042	–	24.12
298.15 K, x1 = 0.2998	–	23.69
298.15 K, x1 = 0.307	775.48	–
298.15 K, x1 = 0.388	–	23.41
298.15 K, x1 = 0.4026	764.9	–
298.15 K, x1 = 0.5011	–	23.07
298.15 K, x1 = 0.5086	754.06	–
298.15 K, x1 = 0.6016	745.28	–
298.15 K, x1 = 0.606	–	22.84
298.15 K, x1 = 0.708	735.96	–
298.15 K, x1 = 0.7086	–	22.66
298.15 K, x1 = 0.808	727.88	–
298.15 K, x1 = 0.8085	–	22.56
298.15 K, x1 = 0.9007	–	22.48
298.15 K, x1 = 0.9016	720.88	–
298.15 K, x1 = 0.9506	717.44	–
298.15 K, x1 = 0.9508	–	22.39
308.15 K, x1 = 0.0509	800.64	–
308.15 K, x1 = 0.0511	–	23.81
308.15 K, x1 = 0.1003	793.82	–
308.15 K, x1 = 0.1013	–	23.52
308.15 K, x1 = 0.2028	780.43	–
308.15 K, x1 = 0.2059	–	23.08
308.15 K, x1 = 0.3066	–	22.59
308.15 K, x1 = 0.307	767.86	–
308.15 K, x1 = 0.4026	757.19	–
308.15 K, x1 = 0.404	–	22.27
308.15 K, x1 = 0.5065	–	21.98
308.15 K, x1 = 0.5086	746.28	–
308.15 K, x1 = 0.6016	737.44	–
308.15 K, x1 = 0.6028	–	21.77
308.15 K, x1 = 0.708	728.09	–
308.15 K, x1 = 0.7135	–	21.59
308.15 K, x1 = 0.8059	–	21.47
308.15 K, x1 = 0.808	719.98	–
308.15 K, x1 = 0.9016	712.97	–
308.15 K, x1 = 0.9043	–	21.34
308.15 K, x1 = 0.9506	709.52	–
308.15 K, x1 = 0.9519	–	21.27
